Results reported in PMC12677653, “Inhibition of Tumor Lipogenesis and Growth by Peptide‐Based Targeting of SREBP Activation” (Advanced Science, 2025).

Legend:
[1] = molecular target: T1, binding of PCK1 to Insig1 (Homo sapiens, UniProt P35558); test: Immunoprecipitation of IGF1-induced PCK1-Insig1 binding, Hep3B; type: cell-based; parameters: expressed in transfected cells; details: Flag-PCK1-expressing Hep3B cells, peptide 15 μM 1 h before IGF1 100 ng/mL
T1 sequence (P35558 1-622): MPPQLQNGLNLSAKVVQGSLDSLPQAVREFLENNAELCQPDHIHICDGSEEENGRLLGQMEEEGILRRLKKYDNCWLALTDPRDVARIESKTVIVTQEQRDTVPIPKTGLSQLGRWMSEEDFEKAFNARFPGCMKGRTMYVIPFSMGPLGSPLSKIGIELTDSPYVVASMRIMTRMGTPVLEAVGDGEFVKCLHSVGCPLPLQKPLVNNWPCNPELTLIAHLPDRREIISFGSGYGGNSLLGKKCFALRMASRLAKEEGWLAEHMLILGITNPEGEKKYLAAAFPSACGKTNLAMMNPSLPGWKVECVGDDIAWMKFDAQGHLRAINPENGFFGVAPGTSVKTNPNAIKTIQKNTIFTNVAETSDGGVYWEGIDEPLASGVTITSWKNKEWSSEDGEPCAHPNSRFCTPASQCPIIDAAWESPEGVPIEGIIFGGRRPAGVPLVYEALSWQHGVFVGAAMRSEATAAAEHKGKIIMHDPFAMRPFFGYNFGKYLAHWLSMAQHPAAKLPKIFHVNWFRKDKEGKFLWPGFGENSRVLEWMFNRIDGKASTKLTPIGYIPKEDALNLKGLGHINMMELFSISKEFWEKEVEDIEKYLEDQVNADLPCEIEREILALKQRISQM
Protocol: Cellular proteins were extracted using ice‐cold lysis buffer [50 mM Tris‐HCl (pH 7.5), 150 mM NaCl, 0.1% SDS, 1% Triton X‐100, 1 mM DTT, 0.5 mM EDTA] supplemented with protease inhibitor cocktail (Roche) and phosphatase inhibitors (Bimake). Following lysis, cell extracts were centrifuged at 13400 × g for 15 min at 4 °C to remove cellular debris. The clarified supernatants were then incubated with primary antibodies overnight at 4 °C with gentle rotation. For Flag‐tagged protein immunoprecipitation, Flag M2 magnetic beads (Sigma) were added to the lysate‐antibody mixture and incubated for an additional 4 h at 4 °C. The immunocomplexes were washed three times with lysis buffer under stringent conditions (5 min per wash with rotation). Finally, the precipitated proteins were eluted and analyzed by immunoblotting as previously described.^[ [35] ^]
d) Flag-PCK1-expressing Hep3B cells were pre-treated with Insig1/2 loop 1 peptide (15 μM) for 1 h before IGF1 (100 ng ml⁻¹) stimulation.

[2] = molecular target: T1, binding of PCK1 to Insig1; test: Immunoprecipitation of IGF1-induced PCK1-Insig1 binding, Huh7; type: cell-based; parameters: expressed in transfected cells; host or cells: Huh7; details: Flag-PCK1-expressing Huh7 cells, peptide 15 µM 1 h before IGF1 100 ng/mL
Protocol: Figure 1 The Insig1/2 loop 1 peptide binds to S90‐phosphorylated PCK1 and blocks PCK1‐mediated SREBP activation and tumor cell proliferation. Immunoblotting analyses were performed using the indicated antibodies; representative results from three independent experiments are shown (IP, immunoprecipitation; WB, western blot). a) Huh7 cells expressing various Insig1 (top) or Insig2 (bottom) truncation mutants were treated with or without IGF1 (100 ng mL^−1) for 1 h. b,c) Biolayer interferometry assays (Sartorius Octet) were employed to measure the binding affinity of Insig1/2 loop 1 peptide to GST‐PCK1 or GST‐PCK1 pS90 proteins. […] Statistical significance was determined by one‐way analysis of variance (ANOVA). g) Following pretreatment with Insig1/2 loop 1 peptide (15 µM) and IGF1 stimulation (100 ng mL^−1, 8 h), Huh7 cells were subjected to immunofluorescence analysis (scale bar: 10 µm). h) Quantitative PCR analysis of SREBP1 target gene GPAM in Huh7 cells pretreated with Insig1/2 loop 1 peptide (15 µM) and stimulated with IGF1 (100 ng mL^−1) for 10 h. […] Statistical significance was determined by one‐way analysis of variance (ANOVA). i) Quantitative PCR analysis of SREBP1 target gene FASN in Huh7 cells pretreated with Insig1/2 loop 1 peptide (15 µM) and stimulated with IGF1 (100 ng mL^−1) for 10 h. […]

## RKKRRQRRRLYPCIDSHLGEPHKFKRE [Insig1/2 loop 1 peptide]
[1]
  IGF1-induced binding of PCK1 to Insig1: markedly inhibited
[2]
  IGF1-induced binding of PCK1 to Insig1: markedly inhibited
